Assay results as given in ChEMBL document CHEMBL1124980, “2,4-Dihydro-3H-1,2,4-triazol-3-ones as anticonvulsant agents” (J Med Chem, 1990).
Active and inactive are the calls of the source. The rule behind the calls is not given here.

Assays:
Glutamate NMDA receptor = assay: Inhibition of [3H]CPP binding to N-methyl-D-aspartate glutamate receptor of rat cortical or hippocampal membranes; assay type: cell membranes, Membrane
Mus musculus [1] = assay: Tested for inhibition of pentylenetetrazole induced seizures in mice; Value is 1/16 of the LD50 range; assay type: functional
[2] = Tested for acute toxicity in mice after intraperitoneal administration; assay type: organism-based; conditions: mouse, in vivo, ip
Mus musculus [3] = assay: Tested for inhibition of maximal electroshock -induced seizures in mice; Value is 1/8 of the LD50 range; assay type: functional
[4] = target: GABA-A receptor; anion channel; assay: In vitro binding affinity for GABA-A receptor in rat cortical or hippocampal membranes using [3H]flunitrazepam
Mus musculus [5] = assay: (§1) Tested for acute toxicity in mice after intraperitoneal administration; Value ranges from 200-400 mg/kg; assay type: functional; conditions: ip
Gerbillinae [6] = assay: Tested for its effect on hippocampal neuronal damage in gerbils activity; assay type: functional
Gerbillinae [7] = assay: Tested for its effect on Hypoxia induced neuronal damage; assay type: functional
Mus musculus [8] = species on record: Mus musculus; assay: Tested for inhibition of quinoline-induced seizures in mice.; assay type: functional
[9] = as §1; assay type: organism-based; conditions: mouse, in vivo, ip
Mus musculus [10] = species on record: Mus musculus; assay: Tested for inhibition of strychnine-induced seizures in mice.; assay type: functional
Mus musculus [11] = species on record: Mus musculus; assay: Tested for inhibition of 3-mercaptopropanoic acid induced seizures in mice.; assay type: functional
Mus musculus [12] = species on record: Mus musculus; assay: Tested for inhibition of bicuculline induced seizures in mice.; assay type: functional
Mus musculus [13] = species on record: Mus musculus; assay: Tested for inhibition of maximal electroshock -induced seizures in mice.; assay type: functional
Mus musculus [14] = species on record: Mus musculus; assay: Tested for inhibition of pentylenetetrazole induced seizures in mice.; assay type: functional
[15] = Tested for acute toxicity in mice after intraperitoneal administration; Value ranges from 100-200 mg/kg; assay type: organism-based; conditions: mouse, in vivo, ip
[16] = Tested for acute toxicity in mice after intraperitoneal administration; Value ranges from 400-800 mg/kg; assay type: organism-based; conditions: mouse, in vivo, ip
Mus musculus [17] = assay: Tested for inhibition of pentylenetetrazole induced seizures in mice; Value is 1/8 of the LD50; assay type: functional
Mus musculus [18] = assay: Tested for inhibition of maximal electroshock -induced seizures in mice; Value is 1/4 of the LD50 range; assay type: functional
Mus musculus [19] = assay: Tested for inhibition of pentylenetetrazole induced seizures in mice; Value is 1/4 of the LD50 range; assay type: functional
Mus musculus [20] = assay: Tested for inhibition of pentylenetetrazole induced seizures in mice; Value is 1/8 of the LD50 range; assay type: functional
Mus musculus [21] = assay: Tested for inhibition of quinoline-induced seizures in mice; g = maximum effect, 50% at 20 mg/kg; assay type: functional, organism-based; design: dose 20 mg/kg
Mus musculus [22] = species on record: Mus musculus; assay: Tested for inhibition of maximal electroshock -induced seizures in mice; Value ranges from 13-25; assay type: functional
Mus musculus [23] = assay: Tested for inhibition of maximal electroshock -induced seizures in mice; Value is 1/16 of the LD50; assay type: functional
Mus musculus [24] = assay: Tested for inhibition of pentylenetetrazole induced seizures in mice; Value is 1/16 of the LD50; assay type: functional
Mus musculus [25] = species on record: Mus musculus; assay: Tested for inhibition of pentylenetetrazole induced seizures in mice; Value ranges from 100-200; assay type: functional
[26] = Tested for acute toxicity in mice after intraperitoneal administration; Value ranges from 400-800; assay type: organism-based; conditions: mouse, in vivo, ip

Cn1c(O)nnc1-c1ccccc1
IC50 (Glutamate NMDA receptor): > 100 µM | Activity (Mus musculus [1]): >50 mg/kg | LD50 [2]: > 800 mg/kg | Activity (Mus musculus [3]): >100 mg/kg | IC50 [4]: > 100 µM

CCn1c(O)nnc1-c1ccc(Cl)cc1
IC50 (Glutamate NMDA receptor): > 100 µM | LD50 (Mus musculus [5]): 400 mg/kg | Activity (Mus musculus [1]): 25 mg/kg | Damage score (Gerbillinae [6]): 0.33 | Damage score (Gerbillinae [7]): 2.64 | ED50 (Mus musculus [8]): ~51 mg/kg | IC50 [4]: > 100 µM

CCn1c(-c2ccc(Cl)cc2)nn(C)c1=O
IC50 (Glutamate NMDA receptor): > 100 µM | Activity (Mus musculus [1]): 20 mg/kg | Damage score (Gerbillinae [6]): 0.33 | LD50 [9]: 400 mg/kg | ED50 (Mus musculus [10]): ~101 mg/kg | Damage score (Gerbillinae [7]): 0.97 | ED50 (Mus musculus [11]): 31 mg/kg | Activity (Mus musculus [3]): 50 mg/kg | ED50 (Mus musculus [8]): 26 mg/kg | ED50 (Mus musculus [12]): 15 mg/kg | ED50 (Mus musculus [13]): 48 mg/kg | ED50 (Mus musculus [14]): 17 mg/kg | IC50 [4]: > 100 µM

CCCCOc1cc(-c2nnc(O)n2C)ccc1OC
LD50 [15]: 200 mg/kg

COc1ccc(-c2nnc(O)n2C)cc1
LD50 [2]: > 800 mg/kg

CCn1nc(-c2cccs2)n(C)c1=O
LD50 [16]: 800 mg/kg

O=C1CN=C(c2ccccc2Cl)c2cc([N+](=O)[O-])ccc2N1 [CLONAZEPAM]
ED50 (Mus musculus [10]): 2 mg/kg | ED50 (Mus musculus [11]): 0.2 mg/kg | ED50 (Mus musculus [8]): < 8 mg/kg | ED50 (Mus musculus [12]): 0.07 mg/kg | ED50 (Mus musculus [13]): 50 mg/kg | ED50 (Mus musculus [14]): 0.06 mg/kg

Cn1c(O)nnc1-c1cccs1
IC50 (Glutamate NMDA receptor): > 100 µM | LD50 [9]: 400 mg/kg | IC50 [4]: > 100 µM

CCn1c(O)nnc1-c1ccccc1
Activity (Mus musculus [17]): >100 mg/kg | LD50 [2]: > 800 mg/kg

CCn1c(-c2cccc(C(F)(F)F)c2)nn(C)c1=O
LD50 [16]: 800 mg/kg | IC50 (Glutamate NMDA receptor): > 100 µM | Activity (Mus musculus [1]): 50 mg/kg | Activity (Mus musculus [3]): 100 mg/kg | IC50 [4]: > 100 µM

Cn1nc(-c2ccc(F)cc2)n(C)c1=O
LD50 [16]: 800 mg/kg | Activity (Mus musculus [18]): 200 mg/kg | Activity (Mus musculus [19]): 200 mg/kg

Cn1c(O)nnc1-c1ccc(Cl)c(Cl)c1
Activity (Mus musculus [18]): 100 mg/kg | IC50 (Glutamate NMDA receptor): > 100 µM | Activity (Mus musculus [19]): 100 mg/kg | LD50 [9]: 400 mg/kg | IC50 [4]: > 100 µM

COc1nnc(-c2ccccc2)n1C
LD50 [2]: > 800 mg/kg

Cn1nc(-c2ccccc2)n(C)c1=O
Activity (Mus musculus [20]): 100 mg/kg | LD50 [16]: 800 mg/kg

CCn1c(O)nnc1-c1cccc(C(F)(F)F)c1
Activity (Mus musculus [20]): 50 mg/kg | LD50 [9]: 400 mg/kg

O=C1NC(=O)C(c2ccccc2)(c2ccccc2)N1 [PHENYTOIN]
ED50 (Mus musculus [10]): > 200 mg/kg | ED50 (Mus musculus [11]): 89 mg/kg | ED50 (Mus musculus [12]): > 200 mg/kg | ED50 (Mus musculus [13]): 26 mg/kg | ED50 (Mus musculus [14]): > 32 mg/kg | ED50 (Mus musculus [21]): Active

Cn1c(O)nnc1-c1ccncc1
IC50 (Glutamate NMDA receptor): > 100 µM | LD50 [2]: > 800 mg/kg | IC50 [4]: > 100 µM

CN[C@H](CC(=O)O)C(=O)O [N-METHYL-D-ASPARTIC ACID (NMDA)]
IC50 (Glutamate NMDA receptor): 6 µM

Cn1nc(-c2ccccc2Cl)n(C)c1=O
Activity (Mus musculus [20]): 50 mg/kg | LD50 [16]: 800 mg/kg | Activity (Mus musculus [18]): 200 mg/kg

NC(=O)N1c2ccccc2C=Cc2ccccc21 [CARBAMAZEPINE]
ED50 (Mus musculus [10]): 61 mg/kg | ED50 (Mus musculus [11]): 86 mg/kg | ED50 (Mus musculus [22]): 25 mg/kg | ED50 (Mus musculus [8]): 25 mg/kg | ED50 (Mus musculus [14]): > 200 mg/kg

CCCn1nc(-c2ccc(Cl)cc2)n(CC)c1=O
LD50 [16]: 800 mg/kg

CCn1nc(-c2ccccc2)n(C)c1=O
Activity (Mus musculus [20]): 100 mg/kg | LD50 [16]: 800 mg/kg

Cc1ccc(-c2nn(C)c(=O)n2C)cc1
LD50 [16]: 800 mg/kg

Cn1c(O)nnc1-c1ccc(Cl)cc1
IC50 (Glutamate NMDA receptor): > 100 µM | Activity (Mus musculus [23]): >50 mg/kg | LD50 [2]: > 800 mg/kg | IC50 [4]: > 100 µM | Activity (Mus musculus [24]): >50 mg/kg

Cl.c1ccc(C2(N3CCCCC3)CCCCC2)cc1 [PHENCYCLIDINE HYDROCHLORIDE]
Damage score (Gerbillinae [6]): 1.06 | Damage score (Gerbillinae [7]): <1.14

Cn1nc(-c2ccc(Cl)c(Cl)c2)n(C)c1=O
LD50 [15]: 200 mg/kg | Activity (Mus musculus [13]): 50 mg/kg | Activity (Mus musculus [14]): 50 mg/kg

CCCC(CCC)C(=O)O [VALPROIC ACID]
ED50 (Mus musculus [10]): > 200 mg/kg | ED50 (Mus musculus [8]): > 256 mg/kg | ED50 (Mus musculus [12]): 28 mg/kg | ED50 (Mus musculus [13]): > 200 mg/kg | ED50 (Mus musculus [25]): 200 mg/kg

Cn1nc(-c2cccs2)n(C)c1=O
LD50 [16]: 800 mg/kg

CCn1c(-c2ccccc2)nn(C)c1=O
LD50 [16]: 800 mg/kg | Activity (Mus musculus [19]): 200 mg/kg | Activity (Mus musculus [3]): 100 mg/kg

Cn1c(O)nnc1-c1ccccc1F
Activity (Mus musculus [1]): >50 mg/kg | LD50 [2]: > 800 mg/kg

Cn1nc(-c2ccccc2)n(C)c1=S
LD50 [15]: 200 mg/kg

Cc1ccc(-c2nnc(O)n2C)cc1
Activity (Mus musculus [17]): >100 mg/kg | LD50 [2]: > 800 mg/kg

Cn1nc(-c2ccccc2F)n(C)c1=O
Activity (Mus musculus [20]): 100 mg/kg | LD50 [16]: 800 mg/kg

Cn1c(O)nnc1-c1ccccc1Cl
IC50 (Glutamate NMDA receptor): > 100 µM | Activity (Mus musculus [1]): 50 mg/kg | LD50 [26]: 800 mg/kg | Damage score (Gerbillinae [6]): 0.22 | Damage score (Gerbillinae [7]): 2.95 | Activity (Mus musculus [3]): 100 mg/kg | ED50 (Mus musculus [8]): ~65 mg/kg | IC50 [4]: > 100 µM

CCCCOc1cc(-c2nn(C)c(=O)n2C)ccc1OC
Activity (Mus musculus [20]): 100 mg/kg | LD50 [16]: 800 mg/kg | IC50 (Glutamate NMDA receptor): > 100 µM | IC50 [4]: 33.2 µM

Cn1nc(-c2ccccc2)nc1O
Activity (Mus musculus [20]): 100 mg/kg | LD50 [26]: 800 mg/kg

CCn1nc(-c2ccc(Cl)cc2)n(CC)c1=O
Activity (Mus musculus [20]): 50 mg/kg | LD50 [9]: 400 mg/kg | Activity (Mus musculus [3]): 50 mg/kg

COc1ccc(-c2nn(C)c(=O)n2C)cc1
LD50 [16]: 800 mg/kg

Cn1nc(-c2ccc(Cl)cc2)n(C)c1=O
LD50 [16]: 800 mg/kg | IC50 (Glutamate NMDA receptor): > 100 µM | Activity (Mus musculus [1]): 50 mg/kg | Activity (Mus musculus [3]): 100 mg/kg | IC50 [4]: > 100 µM

Oc1n[nH]c(-c2ccccc2)n1
LD50 [2]: > 800 mg/kg

CCn1nc(-c2ccc(Cl)cc2)n(C)c1=O
LD50 [16]: 800 mg/kg | Activity (Mus musculus [1]): 50 mg/kg

CCC1(c2ccccc2)C(=O)NC(=O)NC1=O [PHENOBARBITAL]
ED50 (Mus musculus [10]): 52 mg/kg | ED50 (Mus musculus [11]): 30 mg/kg | ED50 (Mus musculus [8]): 52 mg/kg | ED50 (Mus musculus [12]): 9 mg/kg | ED50 (Mus musculus [13]): 20 mg/kg | ED50 (Mus musculus [14]): 24 mg/kg

Cn1c(O)nnc1-c1ccc(F)cc1
IC50 (Glutamate NMDA receptor): > 100 µM | Activity (Mus musculus [23]): >50 mg/kg | LD50 [2]: > 800 mg/kg | IC50 [4]: > 100 µM | Activity (Mus musculus [24]): >50 mg/kg
